These results are taken from PMC8329730 (Journal of medicinal chemistry, 2019).

Structures can show the parent of a compound that is named as a salt.

Data set [1] is described as follows: human liver microsome intrinsic clearance. Particulars: human liver microsomes. In general terms: Liver microsomes are vesicles of endoplasmic reticulum, rich in cytochrome P450 enzymes.
Data set [2] can be described thus: LogD. It counts as physicochemical. Particulars: pH 7.4.
The nature of data set [3]: mouse PK, blood and brain, 10 mg/kg IP. It counts as in vivo. Particulars: female, NMRI, whole blood.
Data set [4] is described as follows: toxicity observed on dosing mice. As to conditions: 50 mg/kg QD. It counts as in vivo, mouse.

Consider “1-((6aR,9aR)-4-(2-Aminopyrimidin-4-yl)-6a,7,8,9,9a,10-hexahydro-2H-cyclopenta[2,3][1,4]oxazepino[5,6,7-cd]indazol-2-yl)ethan-1-one [compound 49]”, for which, in data set [1], the “HLM Clint” value is “highly cleared”.

A word on the logD: it is lipophilicity at a set pH, counting ionised and neutral species. A low value points to a more hydrophilic compound. Regarding `c1ccc2c(c1)Nc1n[nH]c3cccc(c13)O2` [9a], the logD in data set [2] was 4.1.

By Tmax is commonly meant the time at which the peak concentration occurs. As to `CCOc1cc(-c2ccnc(N)n2)cc2[nH]nc(N)c12` [57a, 6-(2-Aminopyrimidin-4-yl)-4-ethoxy-1H-indazol-3-amine formate], the Tmax in data set [3] was in the range of 15 to 30 min.

For `Cn1nc2c3c(cc(-c4ccnc(N)n4)cc31)Oc1ccccc1N2` [compound 18, 4-(2-Methyl-2,11-dihydrobenzo[2,3][1,4]oxazepino[5,6,7-cd]indazol-4-yl)pyrimidin-2-amine], the Tmax in data set [3] is 15 to 30 min. In data set [4], the “animals dying within 30 minutes of treatment” value is 50%. The “animals experiencing inflammation after dosing” value in data set [4] (resolved with time) turned out to be 50%.
